Structures are written as SMILES.

Take `CCC(C=CC(C)C1CCC2C3CCC4=CC(=O)CCC4(C)C3CCC12C)C(C)C` (centres undefined): the melting point – broadly, the temperature, or range, at which the solid turns liquid – lay in the range of 121 to 123 °C.
The value for `CC(C)(C(=O)O)n1c(=O)[nH]c2cccc(F)c2c1=O` was 258 to 260 °C; that for `O=C(O)c1cnc2n(c1=O)CCC=C2Nc1ccccc1` was 197 to 198 °C.
As to `C=Cc1cc2ccc(-c3ccc(C(=O)OC)cc3)cc2cc1C12CC3CC(CC(C3)C1)C2`, the melting point is 221 to 222 °C.
To `CCc1cc(NC(=O)C(CS)Cc2ccccc2)cc(C(=O)O)c1` (centres undefined) belongs 159 to 160 °C; to `CN1C(=O)CC[C@]2(C)c3ccc(Sc4nccc5sccc45)cc3CC[C@@H]12`, 196 to 197 °C; to `O=C(NO)c1ccc(CNC(=O)c2[nH]c(-c3ccc(O)cc3)cc2-c2ccsc2)cc1`, 121 to 122 °C.
Take `O=C1OC(=O)c2cc3occc3c3cccc1c23`: the melting point is 160 to 165 °C.
`CCC1C(=O)CCC(Cc2ccc(OC)cc2)(Cc2ccc(OC)cc2)C1C` (centres undefined): the melting point is 106 to 107 °C.
The value for `CNC(=O)Cc1ccc2ccn(C3CCN(CCc4ccc(F)cc4)CC3)c2c1` was 149 to 150 °C; that for `CCOC(=O)c1cnn(-c2ccc(OCC(C)(C)C)c(C#N)c2)c1Cl` was 90 to 92 °C; that for `COc1cc(C(=O)N(C(C)C)C2CCCCC2)ccc1Cn1c(C)nc2ncccc21` was 201 to 203 °C.
To `Fc1ccc(-n2nnc3cccnc32)c(F)c1` belongs 132 °C; to `OC1(c2ccc(-c3cccnc3)cc2)CN2CCC1CC2` (centres undefined), 172 to 173 °C.
In the case of `COc1ccc(C(=O)Cl)cc1I`, the melting point worked out at 58 °C.
The value for `Oc1cc(Cl)nnc1-c1ccc(F)cc1` was 254 to 260 °C.
To `Oc1ccc(-c2noc3c(Br)cc(O)cc23)cc1` belongs 267 to 270 °C.
For `O=C(c1ccc(Cl)c(Cl)c1)N(CCCCn1ccnc1)C1=Nc2cccc3cccc1c23`, the melting point lay within 138 to 141 °C.
The compound `COC(=O)CC1CCN(CCC=C(c2ccccc2)c2ccccc2)C1` (centres undefined) gave a melting point of 95.5 to 97.5 °C.
`NC1(C2CCCC2=O)OCCO1` (centres undefined) had a melting point of 134 to 136 °C.
The value for `Cc1c(SCc2ccco2)ccnc1CSc1nc2ccccc2[nH]1` was 188 to 189 °C.
Consider `CC(C)N1C(=O)CCCc2cc(Nc3ncc(Cl)c(N[C@@H]4CCCC[C@H]4NS(C)(=O)=O)n3)ccc21`, for which the melting point was 141 to 143 °C.
To `CSc1nnc(-c2cc3c(Oc4ccc(Cl)cc4)cncc3s2)o1` belongs 158 to 160 °C; to `O=C(N[C@H]1CCc2c(F)cc(F)cc2C1)C(F)(F)F`, 160 to 161 °C.
`COc1ccc(-n2cc(C)cc2-c2ccc(S(C)(=O)=O)cc2)cc1` came in with a melting point of 154 to 160 °C.
`CSc1c(C)nc(C(C)C)nc1O` gave a melting point of 156 °C.
Compound `CC1(C)OC(=O)Nc2ccc(-c3ccc(S(N)(=O)=O)s3)cc21` had a melting point of 258 to 260 °C.
To `Cc1cccc(-c2[nH]c(C(C)C)nc2-c2cccc(-c3ccc(C(F)(F)F)cc3)c2)n1` belongs 91 to 93 °C.
Consider `CS(=O)(=O)c1cc(C(F)(F)F)ns1`, for which the melting point is 93 to 94 °C.
The value for `CC1(C(=O)NCCc2ccc(CCC(=O)O)cc2)C=CN=N1` (centres undefined) was 202 to 205 °C; that for `O=C(O)CN1C(=O)C(=CC2CC=CCC2)SC1=S` (centres undefined) was 191 to 193 °C; that for `O=C(COc1cc(=O)oc2ccccc12)c1ccccc1` was 183 to 184 °C.
To `COC(=O)CCc1ccc(OCc2cccc(-c3cccc(CO)c3)c2)cc1` belongs 185 to 188 °C.
For the compound `O=c1cc(C(F)(F)F)nc(Cl)n1-c1cc(Oc2ccccc2[N+](=O)[O-])c(Cl)cc1F`, the melting point was in the range of 128 to 131 °C.
In turn, `NC(=O)N(C(=O)c1c(F)cccc1Cl)c1ccc(SC(F)(F)F)cc1` came in with a melting point of 202 °C.
The value for `NC(N)=Nc1nc(-c2cccc(CSc3nc4ccccc4[nH]3)n2)cs1` was 209 to 211 °C; that for `Cc1cnc(NC2CCC(CCN3CCN(c4ccccc4)CC3)CC2)nc1` (centres undefined) was 190 °C.
To `COC(=O)N[C@H](C(=O)NC(Cc1ccccc1)C(O)CNCC(O)[C@@H](Cc1ccc(OCCc2ccccn2)cc1)NC(=O)OC(C)(C)C)C(C)(C)C` (relative stereo) belongs 139 to 141 °C; to `O=c1c2ccccc2sc2ccc(SCCO)cc12`, 94 °C.
As for `CCC(C(=O)N(C)C)n1nc(-c2ccccc2)c(C)c1C` (centres undefined), the melting point lay in the range of 119 to 121 °C.
With `CC1SC(=O)NN=C1c1ccc(N2CCC(N)CC2)c([N+](=O)[O-])c1` (centres undefined), the melting point is 154 to 157 °C.
To `COc1ccc(C)cc1NC(=O)Nc1ccc(N2CCN(C(=O)Nc3ccc(OCCO)cc3Cl)CC2)c(F)c1` belongs 118 to 120 °C; to `O=c1cc(-c2ccccc2)oc2cccc(OCCO)c12`, 124 °C.
To `CN1CCC2(CCc3cc4ccccc4n3C2)C1` (centres undefined) belongs 55 to 58 °C; to `COc1ccc2c(c1)CCC1C2CCC2(C)C(=NN(C)C)CCC12` (centres undefined), 98 to 100 °C.
To `CCNC(=O)CCC(=O)c1ccc(NS(C)(=O)=O)cc1` belongs 210 to 213 °C.
`CCOC(=O)c1c(Cl)nn(C)c1S(=O)(=O)NC(=O)OC` returned a melting point of 107 to 110 °C.
`COC(=O)c1cccc(-c2ncc(OCCN3CCOCC3)cn2)c1` came in with a melting point of 89 to 91 °C.
To `CCOC(=O)C1CCN(c2cc(-c3ccccc3)nc3ccc(F)cc23)CC1` belongs 120 to 124 °C; to `Cn1c(=O)n(Cc2ccc(F)cc2)c(=O)c2cc(C(=O)c3nc(-c4cccnc4)c4ccccn34)ccc21`, 207 °C; to `COCCOC(=O)Nc1cccc(C)c1CNc1cccn2c(C=O)c(C)nc12`, 153 to 155 °C.
`CC(C)OC(=O)Cc1nc(-c2ccc(F)cc2)oc1-c1ccsc1` had a melting point of 108 to 110 °C.
In turn, `Cc1ccc(S(=O)(=O)Nc2ccccc2CCC(=O)c2cnc3sc(C)c(C)n23)cc1` yielded a melting point of 168 to 169 °C.
The value for `CC(c1ccccc1)n1c(N)c(C#N)c2c1CCCC2` (centres undefined) was 129 °C.
The value for `CC(=O)NCC(=O)Nn1cccc1C(=O)c1ccccc1F` was 146 to 147 °C.
To `Cc1cc(O)c(C)c2c1NCC2` belongs 155 to 158 °C; to `Cc1cc(C)c2cccc(OCc3c(Cl)ccc(S(=O)(=O)N4CCC[C@H]4C(=O)NCCCNC(=O)c4cccc(C=NN)c4)c3Cl)c2n1`, 116 to 120 °C.
As to `CC(C)OC(=O)C1=C2SCC(=CC(=O)N(C)C)N2CC1`, the melting point was 159 to 160 °C.
The value for `CCCCS(=O)(=O)Nc1cccc(COc2cccc3cccnc23)c1` was 136 to 137 °C; that for `O=C(O)CCC(=O)NNc1ccnc2c(NC(=O)c3c(Cl)cccc3Cl)cccc12` was 166 to 170 °C.
To `NC1=NC(Br)=C(c2ccc(C(F)(F)F)cc2)c2ccccc2C1` belongs 227 to 229 °C; to `C=CCOc1ccc(C[C@H](N)C(=O)NC(=O)OC(C)(C)C)cc1`, 145 °C; to `CCON=C(CC)C1=C(O)CC(c2ccc(Sc3ncc(C(F)(F)F)cc3F)cc2)CC1=O` (centres undefined), 91 to 92 °C.
To `CO[C@@H]1[C@@H](OC)[C@H](C)O[C@@H](ON(Cc2ccc(-c3ncn(-c4ccc(OC(F)(F)F)cc4)n3)cc2)C(=O)CCC(=O)O)[C@@H]1OC` belongs 61 to 75 °C; to `CCCCNc1cccc(O)c1`, 35 °C.
The compound `CCCCCCN(C)c1ccc(C=C2SC(=S)N(CCNC(=O)C(F)(F)F)C2=O)cc1` returned a melting point of 136 to 139 °C.
To `O=C1c2ccccc2C(=O)N1c1cc(C(Cl)(Cl)Cl)ccn1` belongs 143 °C.
The value for `O=C(O)c1cccc(-c2nc3cc(N4CCCC4)ccc3o2)c1` was 248 to 250 °C; that for `Cn1c(-c2ccc(-c3ccccn3)cc2)c(C(=O)O)c(=O)n1-c1ccc(C#N)cc1` was 155 to 166 °C.
To `C=CCc1cc2c(c(CC=C)c1O)CCC(=O)N2` belongs 118 to 119 °C; to `COc1ccc(N2CCCCN(CCCCNC(=O)c3ccc(NC(=O)c4ccc(Cl)cc4)cc3)CC2)c(OC)c1`, 229 °C.
`CC(C)(C)OC(=O)Nc1cc(N2CCC(OCCOC3CCCCO3)CC2)c(-c2ccc(F)cc2)cc1N` (racemic): the melting point lay in the range of 56 to 58 °C.
The value for `CCCCCCCCCCCCCCCCC/C=C1\SC(=O)NC1=O` was 97 to 98.5 °C; that for `O=C(O)c1ccc(-c2nc(-c3ccc(C(F)(F)F)cc3)no2)cc1` was 293 to 294 °C; that for `COc1ccc(C#N)cc1-c1cc(-c2cccc(C#N)c2)on1` was 241 to 243 °C.
To `Cc1ccccc1S(=O)(=O)n1c(CCCC(=O)O)cc2nc(Cl)ccc21` belongs 161 °C.
For the compound `Cn1c(-c2ccccc2[N+](=O)[O-])nc2ccccc21`, the melting point fell in the range of 132 to 134 °C.
To `CCOC(=O)CCCCCOc1cc2ccc(-c3ccc(C(=O)O)cc3)cc2cc1C12CC3CC(CC(C3)C1)C2` belongs 270 to 271 °C; to `CCOC(=O)c1cc(-c2ccc(Cl)cc2)n(-c2ccc(OC)cc2)n1`, 107 to 108 °C.
The compound `O=c1[nH]nnn1-c1ccc(C(F)(F)F)cc1` gave a melting point of 191 to 192 °C.
To `C=C1CCCCCCCSC[C@@H](C(=O)O)NC1=O` belongs 184 to 186 °C; to `Fc1ccc(Nc2ncnc3cnc(N4CCC(N5CCOCC5)CC4)nc23)cc1Cl`, 222 to 224 °C.
To `O=C(Nc1ccccc1-c1nnc(CSCCOc2ccccc2)o1)N1CCCC1` belongs 184 to 185 °C; to `CN=C1SCC(O)(C(c2ccccc2)c2ccccc2)N1C` (centres undefined), 133 to 136 °C.
As for `O=C(c1ccccc1)c1cc([N+](=O)[O-])ccc1O`, the melting point is 125 to 126 °C.
As to `Cn1ccnc1COc1ccccc1N`, the melting point fell in the range of 114 to 116 °C.
The value for `CCC12CCC3C4CCC(=O)C=C4CCC3C1CCC2(O)C(C)O` (centres undefined) was 159 to 164 °C; that for `CCOc1ccc(-c2ccc3c(c2)C=C(C(=O)OC(C)(C)C)CCN3C)cc1` was 140 to 142 °C.
The value for `Cc1c(Br)cccc1N1CCn2c(cc3ccccc32)C1=O` was 178 to 180 °C.

(Values after a melting point compilation (Tetko et al.; mined from patent text by program, amines drawn as free bases though some values may be those of a salt).)
